# Reference: ChEMBL document CHEMBL2074375, “Comparison between isopropyl unoprostone and latanoprost by prostaglandin E(2)induction, affinity to prostaglandin transporter, and intraocular metabolism” (Exp Eye Res, 2002)
# Molecular target: Solute carrier organic anion transporter family member 2A1 (Homo sapiens, UniProt Q92959)
# Assay: TP_TRANSPORTER: inhibition of PGE1 uptake (PGE1: 0.0004 uM) in PGT-expressing HeLa cells
# Type: functional, cell-based
row,Compound,Ki [nM]
1,O=C(O)CCC/C=C\C[C@@H]1[C@@H](CC[C@@H](O)CCc2ccccc2)[C@H](O)C[C@@H]1O [LATANOPROST ACID],149
2,CC(C)OC(=O)CCC/C=C\C[C@@H]1[C@@H](CC[C@@H](O)CCc2ccccc2)[C@H](O)C[C@@H]1O [LATANOPROST],> 10000
